Where two headings read alike, the source gives them in different places.
What was measured:
[1] = target: ^3 H-Diazepam binding, rat brain cortical fragments; test: ^3 H-Diazepam binding assay; settings: inhibition of ^3 H-Diazepam binding by 50%
Experimental: Rat brain cortical fragments are prepared and the binding procedures performed as described by Mohler and Okada (Life Sciences, 20, 2101, 1977) except that Tris buffer is substituted for Krebs buffer. Drugs are assayed in triplicate. Radioactivity is measured by liquid scintillation counting.

[2] = test system: convulsive seizures (Ptz. administered intraveneously); test: Intravenous antipentylenetetrazole (Ptz.) test, oral compound, protection against convulsions; assay type: in vivo, Male CF-1 mice; settings: Mus musculus
Experimental: (§1) Utilizing the procedures given below, the compounds of formula I synthesized in the previous examples were assayed for antimetrezol activity and ^3 H-diazepam binding activity. The 24 hour acute toxicity (LD-50, expressed as mg/kg) of each of these compounds was also determined in the standard fashion.
Male CF-1 mice, 45-54 days old, housed in the same facility for one week and food-deprived for about 24 hours are used in this test. […] One hour later, Ptz. is administered intraveneously at 70 mg/kg (convulsant dose 100) and animals are observed 30 seconds for protection against convulsions. If the compound is active orally 8 animals are used per dose level. […] Calculations: The ED50 values and 95% fiducial limits are calculated using a computer program based on the method of D. J. Finney ("Probit Analysis", Cambridge University Press, Cambridge, England, 1971).

[3] = 24 hour acute toxicity (LD-50); settings: in vivo, ">" = not tested above indicated value
Experimental: as §1

[4] = compounds of formula I, read-out: ^3 H-Dz. IC50
[5] = compounds of formula I, oral, 1 h before Ptz. 70 mg/kg i.v., mice, ">" = not tested above indicated value, read-out: Ptz. ED50
[6] = po, 1 h, read-out: ED50 (95% Fiducial Limits)

| SMILES | IC50 [1, 4] [nM] | ED50 [2, 5] [mg/kg] | LD50 at 24 h [3] [mg/kg] | ED50 [2, 6] [mg/kg] | IC50 ([1]; standard drugs, read-out: IC50) [nM] |
| --- | --- | --- | --- | --- | --- |
| CNC(=O)C1CCN(c2cc(-c3ccc(F)cc3)nc3ccc(F)cc23)CC1 [1-6-Fluoro-2-(4-fluorophenyl)-4-quinolinyl)]-N-methyl-4-piperidinecarboxamide] | 1.8 | 13 | > 1000 | – | – |
| CCNC(=O)C1CCN(c2cc(-c3ccc(F)cc3)nc3ccc(F)cc23)CC1 [1-Ethyl-1-[6-fluoro-2-(4-fluorophenyl)-4-quinolinyl]-4-piperidinecarboxamide] | 3 | 22 | > 1000 | – | – |
| NC(=O)C1CCN(c2cc(-c3ccc(Br)cc3)nc3ccccc23)CC1 [1-[2-(4-Bromophenyl)-4-quinolinyl]-4-piperidinecarboxamide] | 35 | 41 | > 1000 | – | – |
| CCN(CC)C(=O)C1CCN(c2cc(-c3ccc(Cl)cc3)nc3ccccc23)CC1 [1-[2-(4-Chlorophenyl)-4-quinolinyl]-N,N-diethyl-4-piperidinecarboxamide] | 500 | – | – | – | – |
| CN(C)C(=O)C1CCN(c2cc(-c3ccc(Cl)cc3)nc3ccccc23)CC1 [1-[2-(4-Chlorophenyl)-4-quinolinyl]-N,N-dimethyl-4-piperidinecarboxamide] | 80 | 24 | > 1000 | – | – |
| CNC(=O)C1CCN(c2cc(-c3ccc(Cl)cc3)nc3ccccc23)CC1 [1-[2-(4-Chlorophenyl)-4-quinolinyl]-N-methyl-4-piperidinecarboxamide] | 19.5 | 9 | > 1000 | – | – |
| NC(=O)C1CCN(c2cc(-c3ccc(Cl)cc3)nc3ccc(F)cc23)CC1 [1-[2-(4-Chlorophenyl)-6-fluoro-4-quinolinyl]-4-piperidinecarboxamide] | 36 | 15 | > 1000 | – | – |
| Cc1ccc2nc(-c3ccc(Cl)cc3)cc(N3CCC(C(N)=O)CC3)c2c1 [1-[2-(4-Chlorophenyl)-6-methyl-4-quinolinyl]-4-piperidinecarboxamide] | 460 | – | – | – | – |
| NC(=O)C1CCN(c2cc(-c3ccc(F)cc3)nc3ccccc23)CC1 [1-[2-(4-Fluorophenyl)-4-quinolinyl]-4-piperidinecarboxamide] | 1.1 | > 100 | > 1000 | – | – |
| NC(=O)C1CCN(c2cc(-c3ccc(Cl)cc3)nc3ccccc23)CC1 [1-[2-(4-chlorophenyl)-4-quinolinyl]-4-piperidinecarboxamide] | 29 | 24 | > 1000 | – | – |
| CCNC(=O)C1CCN(c2cc(-c3ccc(Cl)cc3)nc3ccccc23)CC1 [1-[2-(4-chlorophenyl)-4-quinolinyl]-N-ethyl-4-piperidinecarboxamide] | 9 | 26 | > 1000 | – | – |
| Cc1ccc2nc(-c3ccc(F)cc3)cc(N3CCC(C(N)=O)CC3)c2c1 [1-[2-(4-fluorophenyl)-6-methyl-4-quinolinyl]-4-piperidinecarboxamide] | 34 | > 100 | > 1000 | – | – |
| Cc1ccc(-c2cc(N3CCC(C(N)=O)CC3)c3ccccc3n2)cc1 [1-[2-(4-methylphenyl)-4-quinolinyl]-4-piperidinecarboxamide] | 1.7 | 37 | > 1000 | – | – |
| NC(=O)C1CCN(c2cc(-c3ccc(F)cc3)nc3ccc(Cl)cc23)CC1 [1-[6-Chloro-2-(4-fluorophenyl)-4-quinolinyl]-4-piperidinecarboxamide] | 28 | 29 | > 1000 | – | – |
| CNC(=O)C1CCN(c2cc(-c3ccc(F)cc3)nc3ccc(Cl)cc23)CC1 [1-[6-Chloro-2-(4-fluorophenyl)-4-quinolinyl]-N-methyl-4-piperidinecarboxamide] | 10.5 | 37 | > 1000 | – | – |
| Cc1ccc(-c2cc(N3CCC(C(N)=O)CC3)c3cc(Cl)ccc3n2)cc1 [1-[6-Chloro-2-(4-methylphenyl)-4-quinolinyl]-4-piperidinecarboxamide] | 60 | > 100 | > 1000 | – | – |
| NC(=O)C1CCN(c2cc(-c3ccccc3)nc3ccc(Cl)cc23)CC1 [1-[6-Chloro-2-phenyl-4-quinolinyl]-4-piperidinecarboxamide] | 96 | 50 | > 1000 | – | – |
| CNC(=O)C1CCN(c2cc(-c3ccc(Cl)cc3)nc3ccc(F)cc23)CC1 [1-[6-Fluoro-2-(4-chlorophenyl)-4-quinolinyl]-N-methyl-4-piperidinecarboxamide] | 70 | > 300 | > 1000 | – | – |
| NC(=O)C1CCN(c2cc(-c3ccc(F)cc3)nc3ccc(F)cc23)CC1 [1-[6-Fluoro-2-(4-fluorophenyl)-4-quinolinyl]-4-piperidinecarboxamide] | 1 | 5 | > 1000 | – | – |
| Cc1ccc(-c2cc(N3CCC(C(N)=O)CC3)c3cc(F)ccc3n2)cc1 [1-[6-Fluoro-2-(4-methylphenyl)-4-quinolinyl]-4-piperidinecarboxamide] | 5.4 | 88 | > 1000 | – | – |
| NC(=O)C1CCN(c2cc(-c3ccccc3)nc3ccc(F)cc23)CC1 [1-[6-Fluoro-2-phenyl-4-quinolinyl]-4-piperidinecarboxamide] | 3.6 | 120 | > 1000 | – | – |
| CCCNC(=O)C1CCN(c2cc(-c3ccccc3)nc3ccc(F)cc23)CC1 [1-[6-Fluoro-2-phenyl-4-quinolinyl]-N-propyl-4-piperidinecarboxamide] | 13 | > 100 | > 1000 | – | – |
| Cc1ccc(-c2cc(N3CCC(C(N)=O)CC3)c3cc(C)ccc3n2)cc1 [1-[6-Methyl-2-(4-methylphenyl)-4-quinolinyl]-4-piperidinecarboxamide] | 290 | – | – | – | – |
| Cc1ccc2nc(-c3ccccc3)cc(N3CCC(C(N)=O)CC3)c2c1 [1-[6-Methyl-2-phenyl-4-quinolinyl]-4-piperidinecarboxamide] | 28 | 90 | > 1000 | – | – |
| NC(=O)C1CCN(c2cc(-c3ccc(Cl)cc3)nc3ccc(Cl)cc23)CC1 [1-[6-chloro-2-(4-chlorophenyl)-4-quinolinyl]-4-piperidinecarboxamide] | 205 | – | – | – | – |
| CNC1=Nc2ccc(Cl)cc2C(c2ccccc2)=[N+]([O-])C1 [Chlordiazepoxide, reference compound] | – | – | – | 3.9 | – |
| CN1C(=O)CN=C(c2ccccc2)c2cc(Cl)ccc21 [Diazepam, reference compound] | – | – | – | 1 | – |
| CCN(CC)CCN1C(=O)CN=C(c2ccccc2F)c2cc(Cl)ccc21 [Flurazepam, reference compound] | – | – | – | – | 15.6 |
| CCNC(=O)C1CCN(c2cc(-c3ccccc3)nc3ccc(F)cc23)CC1 [N-Ethyl-1-[6-fluoro-2-phenyl-4-quinolinyl]-4-piperidinecarboxamide] | 2.8 | 58 | > 1000 | – | – |
| CCC1(c2ccccc2)C(=O)NC(=O)NC1=O [Sodium Phenobarbital, reference compound] | – | – | – | 19 | – |

From patent US4560692A, “4-Piperidino-2-phenylquinolines” (Hoffmann-La Roche Inc., priority 1984, dated 1985)
